The record followed here is PubChem BioAssay AID2305 (GlaxoSmithKline (GSK), 2010).

Structures are written as SMILES.

This experiment deals with P. falciparum 3D7 growth, pLDH absorbance. Description: blood-stage malaria parasite growth potency – strain 3D7, dose response (AID 2305).
`O=C(Cc1cn(-c2ccccc2)nc1-c1ccc(Cl)cc1)Nc1nccs1` showed an IC50 of 1200 nM.
The figure for `CS(=O)(=O)CCNC(=O)c1ccc(-c2cc3c(Nc4ccc5c(cnn5Cc5ccccc5)c4)ncnc3cn2)o1` is 1000 nM; for `COc1c(I)cc(Cc2cnc(N)nc2N)cc1I` it is 930 nM.
On to `COc1ccc(Cn2c(SCc3ccc(C)cc3)nc3cc(OC)c(OC)cc3c2=N)cc1Cl`, for which the IC50 amounted to 980 nM.
On to `FC(F)(F)c1ccc2nc(-c3cccc(-c4ccc(CNCc5ccccc5)cc4)c3)[nH]c2c1`, for which the IC50 came to 160 nM.
The figure for `O=C(Nc1ccc(Cn2nc(Cl)c(N3CCCNCC3)cc2=O)cc1)Nc1ccc(-c2ccccc2)cc1` is 840 nM; for `Cc1cc(N[C@@H](CC(C)C)C(=O)NCc2cccc(F)c2)nc(NCC2CCCCC2)n1` it is 830 nM.
For `CC(C)Nc1nc(NC2CCCCC2)nc(N2CCCCCCC2)n1`, the IC50 was 1090 nM.
With `COc1cccc(NC(=O)NC2CCN(CCCCCNC(=O)/C=C/c3ccc(Cl)c(Cl)c3)CC2)c1`, the half-maximal inhibitory concentration (IC50) was 780 nM.
In the case of `COC(=O)c1ccc(CC(C)NCC(O)c2ccc(C(O)CNC(C)Cc3ccc(C(=O)OC)cc3)cc2)cc1` (configuration not stated) it was 1030 nM.
In the case of `CCc1c[nH]c2c(N3CCCS3(=O)=O)cc(C(=O)N[C@@H](Cc3ccccc3)[C@H](O)CNC(C)(C)CCCC(C)C)cc12` it was 670 nM; in that of `CC(C)NCc1cccc(-c2ccc(NC(=O)c3cccc(C#N)c3)cc2)c1`, 320 nM; in that of `O[C@@H](c1ccc2ccccc2c1)[C@@H]1CN(CCc2ccccc2)CC[C@@]1(O)c1ccccc1`, 550 nM.
The compound `CN(C)CCNC(=O)c1ccc2c(c1)ncn2-c1cc(OCc2ccccc2C(F)(F)F)c(C(N)=O)s1` (tested in a mixture with another compound) showed an IC50 of 810 nM.
On to `Cn1nccc1C(=O)NCCNCc1ccc(-c2ccc(-c3nc4ccc(C(F)(F)F)cc4[nH]3)cc2)cc1`, for which the IC50 was 150 nM.
In the case of `Cn1c(=N)cc(-c2cccc(I)c2)c2c(=O)[nH]c(N)nc21`, the IC50 was 270 nM.
The figure for `O=C(NCC1CCC(C(=O)NCCc2ccc(Cl)c(Cl)c2)CC1)c1ccc(O)c(-c2ccc(Cl)c(Cl)c2)c1` (configuration not stated) is 890 nM; for `CCCCCCN1CCCN(Cc2ccc(C(=O)Nc3ccc(CCC)cc3)cc2)CC1` it is 660 nM; for `O=C(c1cccc(-c2noc(C(F)(F)F)n2)c1)N1CCN(c2nsc3ccccc23)CC1` it is 140 nM.
Consider `Cc1cccc2[nH]c(-c3ccc(-c4cccc(NC(=O)c5cnn6cccnc56)c4)cc3)nc12`, for which the IC50 worked out at 870 nM.
With `O=C(NCCCCCN1CCC(c2ccc(O)cc2)CC1)c1ccc(-c2ccccc2)cc1`, the 50% inhibitory concentration (IC50) was found to be 930 nM.
The figure for `CC(=O)N(C)c1cccc(CNc2cc(C)nc(Nc3ccc(C)cc3)n2)c1` is 1000 nM; for `COc1cc(OC)c(NC(=O)C2c3ccccc3C(=O)N(CC(C)C)C2c2cccs2)cc1Cl` (configuration not stated) it is 50 nM; for `COc1ccc(-c2ccc(NC(=O)c3ccc(C#N)cc3)cc2)cc1CN(C)CCO` it is 630 nM.
The figure for `CO/C(=C\C=C\c1cc2cc(Cl)c(Cl)cc2[nH]1)C(=O)NCCCN1CCN(c2ccncc2)CC1` is 730 nM; for `Nc1ncc(OC2CCCCC2)c(N)n1` it is 1070 nM; for `O=C(Nc1ccc2nc(-c3ccc4nc(NC(=O)C5CCCCC5)sc4c3)[nH]c2c1)C1CCCCC1` it is 610 nM.
In the case of `Oc1ccccc1CN[C@@H]1CCCC[C@H]1NCc1ccccc1O` it was 950 nM; in that of `CNCc1ccc(-c2ccc3ccnc(N)c3c2)cc1`, 260 nM.
With `CC(C)(C)c1ccc(CN2CCC(CNC(=O)c3cc(-c4cccc(F)c4)cs3)C2)cc1` (configuration not stated), the half-maximal inhibitory concentration (IC50) amounted to 900 nM.
In the case of `CCCCCCNC[C@@H](O)[C@H](Cc1ccccc1)NC(=O)c1cc(NCC)cc(N2CCCCS2(=O)=O)c1` it was 1000 nM; in that of `O=C(NCCc1cccc(Cl)c1Cl)c1cnc(N2CCN(c3ccncc3)CC2)c(Cl)c1`, 700 nM.
Turning to `O=C(C=Cc1ccccc1)Nc1ccc(C#CC=Cc2ccc(NC(=O)C=Cc3ccccc3)cc2)cc1`, the half-inhibitory concentration (IC50) stood at 850 nM.
The figure for `O=C(Nc1cccc(-c2ccc(-c3nc4ccccc4[nH]3)s2)c1)c1ccncc1` is 780 nM; for `O=C(/C=C/c1ccc(Cl)c(Cl)c1)NCCCCCCN1CCN(C(=O)Nc2ccc(C(F)(F)F)cc2)CC1` it is 400 nM; for `COc1ccc(Nc2nccc(-c3cccc(NC(=O)c4cc5cc(F)ccc5[nH]4)c3)n2)cc1` it is 1030 nM.
The figure for `Cc1cc2c(cc1C(F)(F)F)N(C(=O)Nc1cc(C(=O)NC3CCN(Cc4ccccc4)C3)cc(C(F)(F)F)c1)CC2` (configuration not stated) is 340 nM; for `CCCCCSc1cc(O)c(C(CNC)C(C)C)cc1OC` (configuration not stated) it is 160 nM.
In the case of `CCOc1ccccc1NC(=O)Nc1ccc2c(c1)CCN(C1CCC1)CC2` it was 1110 nM; in that of `COc1ccc(CC(Cc2ccc(OC)cc2)NCC(O)c2cccc(Cl)c2)cc1` (configuration not stated), 160 nM; in that of `Cc1cc(CNCCCCCCCNCc2ccc(Cl)cc2)ccc1O`, 980 nM.
In turn, `CCCN(CCCN(CCCN(CCC)C(C)C)c1cc(C)nc(Nc2ccc(Cl)cc2)n1)C(C)C` had a half-maximal inhibitory concentration (IC50) of 110 nM.
Turning to `Cn1nccc1C(=O)NCCNCc1cccc(-c2ccc(-c3nc4ccc(C(F)(F)F)cc4[nH]3)s2)c1`, the IC50 amounted to 150 nM.
Turning to `COc1ccc2nccc([C@@H](O)CN3CCC(NC(=O)C(c4ccsc4)N4CCN(c5ccccc5)CC4)CC3)c2c1` (some centres not stated), the half-inhibitory concentration (IC50) came to 440 nM.
In the case of `Cc1cnc(C(=O)Nc2cccc(-c3csc(-c4nc5ccccc5[nH]4)c3)c2)cn1` it was 270 nM.
The figure for `O=[N+]([O-])c1ccc(C=NNc2nc(Nc3ccccc3)nc(Nc3ccccc3)n2)o1` is 840 nM; for `CC[C@H](C)CNC(=O)c1cccc(-c2cccc(CNCC3CNCCCO3)c2)n1` (some centres not stated) it is 1080 nM.
On to `O=C(Nc1cccc(-c2ccc(CN3CCNCC3)cc2)c1)c1cccc(Cl)c1`, for which the concentration for half-maximal inhibition (IC50) was 1250 nM.
As for `CCCC1N=C(N)N=C(N)N1c1ccc(C)cc1` (configuration not stated), the IC50 turned out to be 100 nM.
The figure for `Cc1cc(N2CCCN(C)CC2)nc(Nc2ccc(Cl)cc2)n1` is 800 nM; for `CCN(CC)S(=O)(=O)c1ccc(CCOCCCCCNCC(O)c2cc(Cl)c(N)c(Cl)c2)s1` (configuration not stated) it is 860 nM; for `Fc1ccc(C=NNc2ccnc3ccccc23)cc1` it is 710 nM.
In the case of `Cc1cccc2[nH]c(-c3cccc(-c4ccc(NC(=O)C(C)CN(C)C)cc4)c3)nc12` (configuration not stated) it was 220 nM.
Compound `O=C(/C=C/c1ccc(Cl)cc1)NCCCCCN1CCCN(C(=O)Nc2cccc(Cl)c2)CC1` displayed a 50% inhibitory concentration (IC50) of 1000 nM.
For `COc1ccc(Cl)c(CC2c3cc(O)c(Cl)cc3CCN2C)c1` (configuration not stated), the IC50 amounted to 700 nM.
As for `COc1cc(C)nc2ccc(NC(=O)Nc3cccc4ccccc34)cc12`, the 50% inhibitory concentration (IC50) amounted to 880 nM.
The figure for `CNC(=O)C(NC(=O)c1ccccc1C(=O)OC)c1ccccc1` (configuration not stated) is 560 nM.
On to `O=C(Nc1cccc(CN2CCCN(Cc3ccc(O)cc3)CC2)c1)c1ccc2ccccc2c1`, for which the concentration for half-maximal inhibition (IC50) was 370 nM.
Take `COc1ccc(NC(=O)/C=C/c2ccccc2Cl)cc1OCCN1CCC(Cc2cc3ccccc3[nH]2)CC1`: the half-inhibitory concentration (IC50) stood at 900 nM.
In the case of `CCOc1cc(C)ccc1C1CCN(CCCCNC(=O)c2ccc(NC(=O)c3cc(Cl)cc(Cl)c3)cc2)CC1` it was 360 nM; in that of `COc1ccc(-c2csc(N(CCCN(C)C)C(=O)c3cc4c(C)nn(-c5ccccc5)c4s3)n2)cc1`, 620 nM; in that of `COc1ccc2nccc([C@@H](O)CN3CCC(NCc4nc5ccccc5s4)CC3)c2c1`, 930 nM.
